Source: the NIST ThermoML archive (doi:10.1021/je800110r)
Values joined by “and” are separate entries in the source; they are usually repeats but may differ in a detail not shown here. Equal entries are not always repeated. Numbers after ± are expanded uncertainties.

Details: Liquid, Vibrating tube method

CCCCCCCCCC [decane]
Details | mass density
313.16 K, 749 kPa | 715.1 ± 2 kg/m3
313.16 K, 764 kPa | 715.3 ± 2 kg/m3
313.16 K, 784 kPa | 715.3 ± 2 kg/m3
313.16 K, 800 kPa | 715.3 ± 2 kg/m3
313.16 K, 813 kPa | 715.2 ± 2 kg/m3
313.16 K, 837 kPa | 715.4 ± 2 kg/m3
313.16 K, 852 kPa | 715.2 ± 2 kg/m3
313.16 K, 870 kPa | 715.4 ± 2 kg/m3
313.16 K, 891 kPa | 715.4 ± 2 kg/m3
313.16 K, 916 kPa | 715.3 ± 2 kg/m3
313.16 K, 938 kPa | 715.3 ± 2 kg/m3
313.16 K, 958 kPa | 715.5 ± 2 kg/m3
313.16 K, 978 kPa | 715.4 ± 2 kg/m3
323.14 K, 3098 kPa | 709.7 ± 2 kg/m3
323.14 K, 3118 kPa | 709.8 ± 2 kg/m3
323.14 K, 3138 kPa | 709.6 ± 2 kg/m3
323.14 K, 3156 kPa | 709.6 ± 2 kg/m3
323.14 K, 3176 kPa | 709.7 ± 2 kg/m3
323.14 K, 3200 kPa | 709.7 ± 2 kg/m3
323.14 K, 3221 kPa | 709.8 ± 2 kg/m3
323.14 K, 3243 kPa | 709.8 ± 2 kg/m3
323.14 K, 3271 kPa | 709.9 ± 2 kg/m3
323.14 K, 3297 kPa | 709.9 ± 2 kg/m3
323.14 K, 3322 kPa | 709.9 ± 2 kg/m3
323.14 K, 3345 kPa | 709.8 ± 2 kg/m3
323.14 K, 3372 kPa | 709.8 ± 2 kg/m3
323.14 K, 3400 kPa | 710 ± 2 kg/m3
323.14 K, 3430 kPa | 709.9 ± 2 kg/m3
323.14 K, 3451 kPa | 710 ± 2 kg/m3
323.14 K, 3477 kPa | 710 ± 2 kg/m3
323.14 K, 3502 kPa | 710.1 ± 2 kg/m3
323.14 K, 3524 kPa | 710.2 ± 2 kg/m3
323.14 K, 3549 kPa | 710.1 ± 2 kg/m3
323.14 K, 3571 kPa | 710.1 ± 2 kg/m3
323.14 K, 3597 kPa | 710.2 ± 2 kg/m3
323.14 K, 3614 kPa | 710.1 ± 2 kg/m3
323.14 K, 3637 kPa | 710.2 ± 2 kg/m3
323.14 K, 3661 kPa | 710.2 ± 2 kg/m3
323.14 K, 3681 kPa | 710.1 ± 2 kg/m3
323.14 K, 3715 kPa | 710.2 ± 2 kg/m3
323.14 K, 3736 kPa | 710.3 ± 2 kg/m3
323.14 K, 3761 kPa | 710.4 ± 2 kg/m3
323.14 K, 3794 kPa | 710.3 ± 2 kg/m3
323.14 K, 3819 kPa | 710.3 ± 2 kg/m3
323.14 K, 3849 kPa | 710.3 ± 2 kg/m3
323.14 K, 3879 kPa | 710.4 ± 2 kg/m3
323.14 K, 3911 kPa | 710.4 ± 2 kg/m3
323.14 K, 3939 kPa | 710.5 ± 2 kg/m3
323.14 K, 3959 kPa | 710.5 ± 2 kg/m3
323.14 K, 3978 kPa | 710.4 ± 2 kg/m3
323.14 K, 4004 kPa | 710.5 ± 2 kg/m3
323.14 K, 4033 kPa | 710.5 ± 2 kg/m3
323.14 K, 4053 kPa | 710.5 ± 2 kg/m3
323.14 K, 4078 kPa | 710.6 ± 2 kg/m3
323.14 K, 4103 kPa | 710.7 ± 2 kg/m3
323.14 K, 4122 kPa | 710.7 ± 2 kg/m3
323.14 K, 4144 kPa | 710.6 ± 2 kg/m3
323.14 K, 4164 kPa | 710.6 ± 2 kg/m3
323.14 K, 4191 kPa | 710.6 ± 2 kg/m3
323.14 K, 4213 kPa | 710.8 ± 2 kg/m3
323.14 K, 4230 kPa | 710.8 ± 2 kg/m3
323.14 K, 4248 kPa | 710.7 ± 2 kg/m3
323.14 K, 4405 kPa | 710.9 ± 2 kg/m3
323.14 K, 4447 kPa | 710.9 ± 2 kg/m3
323.14 K, 4462 kPa | 710.9 ± 2 kg/m3
323.14 K, 4506 kPa | 711 ± 2 kg/m3
323.14 K, 4528 kPa | 711 ± 2 kg/m3
323.14 K, 4550 kPa | 711 ± 2 kg/m3
323.14 K, 4566 kPa | 711 ± 2 kg/m3
323.14 K, 4587 kPa | 711 ± 2 kg/m3
323.14 K, 4704 kPa | 711.1 ± 2 kg/m3
323.14 K, 4721 kPa | 711.2 ± 2 kg/m3
323.14 K, 4739 kPa | 711.2 ± 2 kg/m3
323.14 K, 4770 kPa | 711.2 ± 2 kg/m3
323.14 K, 4793 kPa | 711.3 ± 2 kg/m3
323.14 K, 4804 kPa | 711.2 ± 2 kg/m3
323.14 K, 4818 kPa | 711.3 ± 2 kg/m3
323.14 K, 4838 kPa | 711.3 ± 2 kg/m3
323.14 K, 4970 kPa | 711.3 ± 2 kg/m3
323.14 K, 5064 kPa | 711.5 ± 2 kg/m3
323.14 K, 5127 kPa | 711.5 ± 2 kg/m3
323.14 K, 5175 kPa | 711.5 ± 2 kg/m3
323.14 K, 5178 kPa | 711.6 ± 2 kg/m3
323.14 K, 5183 kPa | 711.6 ± 2 kg/m3
323.14 K, 5184 kPa | 711.5 ± 2 kg/m3
323.14 K, 5187 kPa | 711.6 ± 2 kg/m3
323.14 K, 5189 kPa | 711.6 ± 2 kg/m3
323.14 K, 5191 kPa | 711.6 ± 2 kg/m3
323.14 K, 5192 kPa | 711.5 ± 2 kg/m3 and 711.6 ± 2 kg/m3
323.14 K, 5193 kPa | 711.5 ± 2 kg/m3
323.14 K, 5216 kPa | 711.7 ± 2 kg/m3
323.14 K, 5238 kPa | 711.6 ± 2 kg/m3
323.14 K, 5256 kPa | 711.7 ± 2 kg/m3
323.14 K, 5276 kPa | 711.6 ± 2 kg/m3
323.14 K, 5291 kPa | 711.7 ± 2 kg/m3
323.14 K, 5312 kPa | 711.6 ± 2 kg/m3
323.14 K, 5335 kPa | 711.7 ± 2 kg/m3
323.14 K, 5353 kPa | 711.8 ± 2 kg/m3
323.14 K, 5375 kPa | 711.7 ± 2 kg/m3
323.14 K, 5406 kPa | 711.8 ± 2 kg/m3
323.14 K, 5428 kPa | 711.7 ± 2 kg/m3
323.14 K, 5450 kPa | 711.7 ± 2 kg/m3
323.14 K, 5468 kPa | 711.9 ± 2 kg/m3
323.14 K, 5487 kPa | 711.9 ± 2 kg/m3
323.14 K, 5506 kPa | 711.8 ± 2 kg/m3
323.14 K, 5535 kPa | 711.9 ± 2 kg/m3
323.14 K, 5551 kPa | 711.8 ± 2 kg/m3
323.14 K, 5575 kPa | 712 ± 2 kg/m3
323.14 K, 5594 kPa | 711.9 ± 2 kg/m3
323.14 K, 5611 kPa | 712 ± 2 kg/m3
323.14 K, 5631 kPa | 712 ± 2 kg/m3
323.14 K, 5670 kPa | 712 ± 2 kg/m3
323.14 K, 5697 kPa | 712.1 ± 2 kg/m3
323.14 K, 5721 kPa | 712.1 ± 2 kg/m3
323.14 K, 5738 kPa | 712.1 ± 2 kg/m3
323.14 K, 5756 kPa | 712 ± 2 kg/m3
323.14 K, 5770 kPa | 712 ± 2 kg/m3
323.14 K, 5788 kPa | 712 ± 2 kg/m3
323.14 K, 5909 kPa | 712.2 ± 2 kg/m3
323.14 K, 5924 kPa | 712.2 ± 2 kg/m3
323.14 K, 5940 kPa | 712.3 ± 2 kg/m3
323.14 K, 5955 kPa | 712.2 ± 2 kg/m3
323.14 K, 5968 kPa | 712.3 ± 2 kg/m3
323.14 K, 5986 kPa | 712.3 ± 2 kg/m3
323.14 K, 6004 kPa | 712.2 ± 2 kg/m3
323.14 K, 6022 kPa | 712.4 ± 2 kg/m3
323.14 K, 6037 kPa | 712.3 ± 2 kg/m3
323.14 K, 6056 kPa | 712.3 ± 2 kg/m3
323.14 K, 6076 kPa | 712.5 ± 2 kg/m3
323.14 K, 6089 kPa | 712.4 ± 2 kg/m3
323.14 K, 6105 kPa | 712.3 ± 2 kg/m3
323.14 K, 6124 kPa | 712.5 ± 2 kg/m3
323.14 K, 6144 kPa | 712.5 ± 2 kg/m3
323.14 K, 6167 kPa | 712.5 ± 2 kg/m3
323.14 K, 6179 kPa | 712.3 ± 2 kg/m3
323.14 K, 6202 kPa | 712.5 ± 2 kg/m3
323.14 K, 6217 kPa | 712.4 ± 2 kg/m3
